{"source": "patent US12630806B2", "about": "(priority 2020, dated 2026)", "molecules": {"B1": {"name": "HRP: horseradish peroxidase, captures H2O2 (protein, UniProt P00433 31-338, looked up)", "Peroxidase C1A": "QLTPTFYDNSCPNVSNIVRDTIVNELRSDPRIAASILRLHFHDCFVNGCDASILLDNTTSFRTEKDAFGNANSARGFPVIDRMKAAVESACPRTVSCADLLTIAAQQSVTLAGGPSWRVPLGRRDSLQAFLDLANANLPAPFFTLPQLKDSFRNVGLNRSSDLVALSGGHTFGKNQCRFIMDRLYNFSNTGLPDPTLNTTYLQTLRGLCPLNGNLSALVDFDLRTPTIFDNKYYVNLEEQKGLIQSDQELFSSPNATDTIPLVRSFANSTQTFFNAFVEAMDRMGNITPLTGTQGQIRLNCRVVNSNS"}, "B2": {"name": "PsAA7A: AA7 clade IIb enzyme from Phytophthora sojae, active on glucuronic and galacturonic acid (protein, listed as Phytophthora sojae)", "chain": "MVSSASSAIFALCSLIAAQSGLASAAATPVDLGSCLTKAGIENSVPRTTTWTMDIQPWNSRINPQPAAVAFPKTEAQVSAALKCAGSAGVKVTTLGGNRSFSSMGFGRNNGALVMNLKHMKHLKYDASTGLLSYGGPVMISETAKYMWGFKRTLPHGRCPDVGMTGVAASGFGTLSRAAGTVLDNIEAVRVALANGSIVDASAKQNSDLFWGVRGAASSMGVVLDFKIKTMAPPSQTVTNYTIAFDKSAKPTQQDNVNAFIGTQKWALSADNNDLLSIRFSLKTKSTLQGFFYGSSAQAKTVFASLMKNLPPSMVLTTTEEDFWTSETYSTPGLIEQTMSPRRYFYIASVTIPSNKPLTNATAWDLFSSTAYAPALPDASASGFVDIWGGRYAKGVKADASAWKHDDRLHLIRWDIRTPSFDVKFADSTITTMRSNFYKFVSSYKASGGVPGGFTTYRDERWTIKEMAEYLYGGGNFAKLQQIKTKYDPKMMFNTDPQAIPALA", "modifications": "peptide (1)..(504) PsAA7A from Phytophthora sojae - an AA7 enzyme belonging to clade IIb"}}, "key": {"[1]": {"target": "T1, FgCelDH7C, Fusarium graminearum PH-1, SEQ ID NO: 1 (Table 2: SEQ ID NO: 31) (Fusarium graminearum, UniProt I1RWY4)", "assay_type": "biochemical", "conditions": "oxidase assay, 20 mM cellobiose; for V0/E: estimated"}, "[2]": {"tested_on": "FgAA7D, Fusarium graminearum PH-1, SEQ ID NO: 113", "assay_type": "biochemical", "conditions": "150 nM enzyme, 10 mM cellobiose"}, "[3]": {"target": "T1, FgCelDH7C, Fusarium graminearum PH-1, SEQ ID NO: 1 (Table 2: SEQ ID NO: 31)", "conditions": "dehydrogenase assay, 0.1 mM DCIP, 0.1 μM enzyme, 50 mM HEPES pH 7.0, FgCelDH7C"}, "[4]": {"target": "T2, MoChiO7A, Magnaporthe (anamorph Pyricularia) oryzae 70-15, SEQ ID NO: 21 (Table 2: SEQ ID NO: 35) (Pyricularia oryzae, UniProt G4NAH7)", "conditions": "oxidase assay, 50 mM NaOAc pH 5.2, MoChiO7A"}, "[5]": {"target": "T3, FgChiO7B, Fusarium graminearum, SEQ ID NO: 20 (Table 2: SEQ ID NO: 33) (Fusarium graminearum, UniProt A0ACM8RFH6)", "conditions": "oxidase assay, 50 mM NaOAc pH 5.2, FgChiO7B"}, "[6]": {"target": "T2, MoChiO7A, Magnaporthe (anamorph Pyricularia) oryzae 70-15, SEQ ID NO: 21 (Table 2: SEQ ID NO: 35)", "conditions": "dehydrogenase assay, 0.1 mM DCIP, 0.1 μM enzyme, 50 mM HEPES pH 7.0, MoChiO7A"}, "[7]": {"target": "T3, FgChiO7B, Fusarium graminearum, SEQ ID NO: 20 (Table 2: SEQ ID NO: 33)", "conditions": "dehydrogenase assay, 0.1 mM DCIP, 0.1 μM enzyme, 50 mM HEPES pH 7.0, FgChiO7B"}, "PaLPMO9H": {"tested_on": "PaLPMO9H", "test": "AA7-LPMO synergy assay with PaLPMO9H on PASC or Avicel (HPAEC-PAD)", "assay_type": "biochemical, Podospora anserina"}, "[8]": {"target": "T4, PsAA7A, Phytophthora sojae, SEQ ID NO: 7 (Table 2: SEQ ID NO: 37) (Phytophthora sojae, UniProt G4YI39)", "T4 sequence (G4YI39 23-504)": "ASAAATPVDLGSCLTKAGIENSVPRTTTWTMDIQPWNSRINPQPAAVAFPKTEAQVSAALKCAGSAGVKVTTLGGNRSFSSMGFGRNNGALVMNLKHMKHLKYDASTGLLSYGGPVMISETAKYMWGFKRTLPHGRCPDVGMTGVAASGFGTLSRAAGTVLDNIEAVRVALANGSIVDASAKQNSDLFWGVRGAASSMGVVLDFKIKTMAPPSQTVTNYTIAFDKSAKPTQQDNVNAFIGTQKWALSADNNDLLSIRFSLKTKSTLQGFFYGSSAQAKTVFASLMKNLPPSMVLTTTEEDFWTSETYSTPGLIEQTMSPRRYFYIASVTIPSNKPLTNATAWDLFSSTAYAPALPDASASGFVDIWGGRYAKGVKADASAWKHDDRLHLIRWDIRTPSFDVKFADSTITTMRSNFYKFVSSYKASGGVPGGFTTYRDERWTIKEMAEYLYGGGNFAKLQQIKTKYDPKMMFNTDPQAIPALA", "assay_type": "biochemical"}, "[9]": {"target": "T4, PsAA7A, Phytophthora sojae, SEQ ID NO: 7 (Table 2: SEQ ID NO: 37)", "assay_type": "biochemical", "remark": "listed apart in the source"}, "[10]": {"assay_type": "biochemical", "conditions": "GalA; V0/E values"}}, "note": "Entries after “also recorded” stand apart in the source; their conditions may differ. Like-named read-outs stand apart in the source and are kept apart here."}
{"molecule": "OC[C@H]1O[C@@H](O[C@H]2[C@H](O)[C@@H](O)C(O)O[C@@H]2CO)[C@H](O)[C@@H](O)[C@@H]1O", "note": "(some centres unmarked) [Cellobiose, cellobiose]", "values": [{"measurement": "normalized rate (slope of linear region/E), initial burst", "setting": "[1]; 150 μM enzyme", "value": 0.00029, "unit": "s⁻¹"}, {"measurement": "reaction rate, second phase", "setting": "[1]; 150 μM enzyme", "value": "7e-05", "unit": "s⁻¹"}, {"measurement": "normalized rate (slope of linear region/E), initial burst", "setting": "[1]; 500 μM enzyme", "value": 0.00013, "unit": "s⁻¹"}, {"measurement": "reaction rate, second phase", "setting": "[1]; 500 μM enzyme", "value": "4.1e-05", "unit": "s⁻¹"}, {"measurement": "V0/E", "setting": "[1]; 150 uM enzyme", "value": "(2.93E−4^c) s^−1"}, {"measurement": "V0/E", "setting": "[1]; 500 uM enzyme", "value": "1.29E−4^b s^−1"}, {"measurement": "Estimated oxidase activity", "setting": "[2]", "value": 0.001, "unit": "s⁻¹"}, {"measurement": "kcat", "setting": "[3]", "value": "30.8 ± 0.81", "unit": "s⁻¹"}]}
{"molecule": "OC[C@H]1O[C@@H](O[C@H]2[C@H](O)[C@@H](O)[C@H](O[C@H]3[C@H](O)[C@@H](O)[C@H](O[C@H]4[C@H](O)[C@@H](O)C(O)O[C@@H]4CO)O[C@@H]3CO)O[C@@H]2CO)[C@H](O)[C@@H](O)[C@@H]1O", "note": "(some centres unmarked) [Cellotetraose, cellotetraose]", "values": [{"measurement": "kcat", "setting": "[3]", "value": "39.2 ± 0.76", "unit": "s⁻¹"}]}
{"molecule": "OC[C@H]1O[C@@H](O[C@H]2[C@H](O)[C@@H](O)[C@H](O[C@H]3[C@H](O)[C@@H](O)C(O)O[C@@H]3CO)O[C@@H]2CO)[C@H](O)[C@@H](O)[C@@H]1O", "note": "(some centres unmarked) [Cellotriose, cellotriose]", "values": [{"measurement": "kcat", "setting": "[3]", "value": "36.1 ± 0.74", "unit": "s⁻¹"}]}
{"molecule": "CC(=O)N[C@H]1[C@H](O[C@H]2[C@H](O)[C@@H](NC(C)=O)C(O)O[C@@H]2CO)O[C@H](CO)[C@@H](O)[C@@H]1O", "note": "(some centres unmarked) [Chitobiose, chitobiose]", "values": [{"measurement": "kcat", "setting": "[4]", "value": "4.37 ± 0.12", "unit": "s⁻¹"}, {"measurement": "kcat", "setting": "[5]", "value": "2.27 ± 0.03", "unit": "s⁻¹"}, {"measurement": "kcat", "setting": "[6]", "value": "22.4 ± 0.5", "unit": "s⁻¹"}, {"measurement": "kcat", "setting": "[7]", "value": "29.3 ± 0.41", "unit": "s⁻¹"}]}
{"molecule": "CC(=O)N[C@H]1[C@H](O[C@H]2[C@H](O)[C@@H](NC(C)=O)C(O)O[C@@H]2CO)O[C@H](CO)[C@@H](O[C@@H]2O[C@H](CO)[C@@H](O)[C@H](O)[C@H]2NC(C)=O)[C@@H]1O", "note": "(some centres unmarked) [Chitotriose, chitotriose]", "values": [{"measurement": "kcat", "setting": "[4]", "value": "3.71 ± 0.09", "unit": "s⁻¹"}, {"measurement": "kcat", "setting": "[5]", "value": "6.14 ± 0.29", "unit": "s⁻¹"}]}
{"molecule": "O=C1C=CC(=Nc2cc(Cl)c(O)c(Cl)c2)C=C1", "note": "[DCIP, 2,6-dichlorophenolindophenol]", "values": [{"measurement": "synergy with PaLPMO9H: released cello-oligosaccharides from PASC", "setting": "PaLPMO9H", "value": "inhibited the observed synergy"}]}
{"molecule": "O=C(O)[C@H]1OC(O)[C@H](O)[C@@H](O)[C@H]1O", "note": "(some centres unmarked) [GalA, galacturonic acid]", "values": [{"measurement": "V0/E", "setting": "[8]", "value": "1.7E−4^d s^−1"}, {"measurement": "oxidase activity estimated from the linear segments after the initial delayed burst", "setting": "[8]", "value": "1.7±0.6 ×10^−4 s^−1"}, {"measurement": "dehydrogenase activity (V0/E)", "setting": "[9]", "value": 6.4, "unit": "s⁻¹"}]}
{"molecule": "CC(=O)N[C@H]1C(O)O[C@H](CO)[C@H](O)[C@@H]1O", "note": "(some centres unmarked) [GalNAc]", "values": [{"measurement": "kcat", "setting": "[4]", "value": "3.67 ± 0.06", "unit": "s⁻¹"}]}
{"molecule": "CC(=O)N[C@H]1C(O)O[C@H](CO)[C@@H](O)[C@@H]1O", "note": "(some centres unmarked) [GlcNAc]", "values": [{"measurement": "kcat", "setting": "[4]", "value": "3.8 ± 0.07", "unit": "s⁻¹"}, {"measurement": "kcat", "setting": "[5]", "value": "6.76 ± 0.31", "unit": "s⁻¹"}]}
{"molecule": "B1", "values": [{"measurement": "effect of additive on PaLPMO9H-FgCelDH7C synergy / LPMO activity", "setting": "PaLPMO9H; Avicel, 18 h at 35° C., HRP or SOD added", "value": "inhibitory of the LPMO activity; also recorded: abolished the activity"}]}
{"molecule": "B2", "values": [{"measurement": "dehydrogenase/oxidase ratio", "setting": "[10]", "value": "about 4×10^4"}, {"measurement": "synergy to LPMO catalyzed degradation of avicel", "setting": "PaLPMO9H; Avicel 0.5% (w/v), 35° C., 24 h, PaLPMO9H, AA7 with its substrate (cellotetraose or galacturonic acid 0.8 mM)", "value": "does not (or does only with a far lower extent) confer synergy"}]}
